Paper PMC11643578, “Cytotoxic and Antibacterial Cyclodepsipeptides from an Endophytic Fungus Fusarium avenaceum W8” (Molecules, 2024)
In brackets after ≈: the same amount, converted by molar mass. Read-outs that look alike come from different tables or passages of the source. Square brackets hold non-standard residues; d marks the D form. Peptide text beside a SMILES is read from it. Hica(2S) = CC(C)C[C@H](O)C(=O)O; dHica = CC(C)C[C@@H](O)C(=O)O; βAla = NCCC(=O)O

How the values were obtained:
Type in all cases: cell-based
[1] = test system: A549 human lung adenocarcinoma cell line; experiment: MTT cytotoxicity assay, A549; conditions: A549 cells, 72 h treatment, absorbance 562 nm (reference 630 nm), read-out: IC50 Values, cytotoxicity against A549
Description: (§1) The cytotoxicity of the compound against A549 and NCI-1944 lines was determined by using 3-(4,5-dimethyl-2-thiazolyl)-2,5-diphenyl-2-H-tetrazolium bromide (MTT). The cells were maintained in DMEM containing 10% (v/v) fetal bovine serum (FBS) and 0.4% (v/v) penicillin−streptomycin solution (10,000 units/mL penicillin and 10,000 μg/mL streptomycin, 100X) at 37 °C under 5% CO2. After 24 h of adherent cell growth, different concentrations of the compounds, positive control adriamycin (ADM), and blank control (methanol) were added to 96-well plates. After 72 h, 20 μL of MTT solution was added. The absorbance value (detection wavelength is 562 nm and reference wavelength is 630 nm) was measured on the microplate reader, and the IC50 value of each compound was calculated.

[2] = test system: NCI-H1944 human lung adenocarcinoma cell line; experiment: MTT cytotoxicity assay, NCI-H1944; conditions: NCI-H1944 cells, 72 h treatment, absorbance 562 nm (reference 630 nm), read-out: IC50 Values, cytotoxicity against NCI-H1944
Description: as §1

Staphylococcus aureus [3] = experiment: Antimicrobial activity assay (MIC80, OD600), S. aureus; conditions: LB broth, 128-4 μg/mL, 37 °C, 24 h; for MIC80 against S. aureus: 96-well plate
Description: (§2) Strains of S. aureus and S. cerevisiae were used for the antimicrobial activity assay, and compounds 1–7 were evaluated as described. We resuscitated the bacteria and centrifuge them at 8000 rpm for 5 min at 4 °C; we then washed the precipitate twice with PBS. We diluted it with Luria-Bertani (LB) broth medium to the concentration of 5 × 10^5 CFU/mL. Strains were grown to OD600 = 0.3 in LB broth medium and diluted 400-fold. Aliquots (200 μL) of the diluted suspensions were placed into 96-well microtiter plates with isolated compounds at concentrations of 128, 64, 32, 16, 8, and 4 μg/mL and cultured at 37 °C for 24 h. Furazolidone was the positive control and DMSO was used as the negative control. The OD600 values were used to test the antimicrobial rate for MIC80.

Saccharomyces cerevisiae [4] = experiment: Antimicrobial activity assay (MIC80, OD600), S. cerevisiae; conditions: LB broth, 128-4 μg/mL, 37 °C, 24 h
Description: as §2

Staphylococcus aureus [5] = experiment: Growth time-OD600 curve at MIC80, S. aureus; conditions: compound at its MIC80 concentration, OD600 at 8-32 h, 37 °C, n = 3
Description: (§3) The strain was grown to OD600 = 0.3 in LB broth medium and diluted 100-fold. Aliquots (200 μL) of the diluted suspensions were placed into 96-well microtiter plates, and compounds 1 and 4 at the concentration of MIC80 were cultured in the plate at 37 °C. The absorbance value was measured at OD600 at 8 h, 12 h, 16 h, 20 h, 24 h, and 32 h.

Saccharomyces cerevisiae [6] = experiment: Growth time-OD600 curve at MIC80, S. cerevisiae; conditions: compound at its MIC80 concentration, OD600 at 8-32 h, 37 °C, n = 3
Description: as §3

SMILES: CC(C)C[C@@H]1NC(=O)[C@H](CC(C)C)NC(=O)[C@H](C(C)C)NC(=O)[C@H](CC(C)C)NC(=O)[C@@H](CC(C)C)NC1=O [Compound 5, cyclo-(L-Leu-L-Leu-D-Leu-L-Leu-L-Val)] (cyclo(LL[dL]LV))
- IC50 [1]: < 50 µM
- IC50 [2]: < 50 µM

SMILES: CC[C@H](C)[C@H]1OC(=O)[C@H](C(C)C)N(C)C(=O)[C@@H](C(C)C)OC(=O)[C@H](C(C)C)N(C)C(=O)[C@@H](C(C)C)OC(=O)[C@H](C(C)C)N(C)C1=O [Compound 4, enniatin H]
- antimicrobial activity against S. aureus (in words) (Staphylococcus aureus [3]): did not display strong antimicrobial activity
- antimicrobial activity against S. cerevisiae (in words) (Saccharomyces cerevisiae [4]): did not display strong antimicrobial activity

SMILES: COc1cccc2c1C(=O)c1c(O)c3c(c(O)c1C2=O)C[C@@](O)(C(=O)CO)C[C@@H]3O[C@H]1C[C@H](N)[C@H](O)[C@H](C)O1 [adriamycin, reference compound]
- IC50 ([1]; Homo sapiens): 4.26 ± 0.17 µM
- IC50 ([2]; Homo sapiens): 4.35 ± 0.27 µM

SMILES: CC[C@H](C)[C@@H]1NC(=O)[C@H](CC(C)C)NC(=O)[C@H](CC(C)C)NC(=O)CCNC(=O)[C@@H](CC(C)C)OC1=O [Compound 2, avenamide B] (cyclo([dHica][βAla]LLI))
- antimicrobial activity against S. aureus (in words) (Staphylococcus aureus [3]): did not display strong antimicrobial activity
- antimicrobial activity against S. cerevisiae (in words) (Saccharomyces cerevisiae [4]): did not display strong antimicrobial activity

SMILES: CC(C)[C@H]1C(=O)O[C@H](C(C)C)C(=O)N(C)[C@@H](C(C)C)C(=O)O[C@H](C(C)C)C(=O)N(C)[C@@H](C(C)C)C(=O)O[C@H](C(C)C)C(=O)N1C [Compound 3, enniatin B]
- MIC80 against S. aureus (Staphylococcus aureus [3]): 11.08 µg/mL (≈ 17.3 µM)
- MIC80 against S. cerevisiae (Saccharomyces cerevisiae [4]; 96-well plate): 16.92 µg/mL (≈ 26.4 µM)
- growth time curve of S. aureus (in words) (Staphylococcus aureus [5]): exhibited antimicrobial activity against both strains during the measuring time
- growth time curve of S. cerevisiae (in words) (Saccharomyces cerevisiae [6]): exhibited antimicrobial activity against both strains during the measuring time

SMILES: CC[C@H](C)[C@@H]1NC(=O)[C@H](CC(C)C)NC(=O)[C@H](CC(C)C)NC(=O)[C@H](CC(C)C)NC(=O)[C@H](CC(C)C)NC1=O [Compound 6, cyclo-(L-Ile-L-Leu-L-Leu-L-Leu-L-Leu)] (cyclo(ILLLL))
- IC50 [1]: < 50 µM
- IC50 [2]: < 50 µM

SMILES: CC(C)C[C@@H]1OC(=O)[C@H](Cc2ccccc2)NC(=O)[C@H](Cc2ccccc2)NC(=O)[C@H](Cc2ccccc2)NC(=O)[C@H](Cc2ccc(O)cc2)NC1=O [Compound 1, avenamide A] (cyclo([Hica(2S)]YFFF))
- MIC80 against S. aureus (Staphylococcus aureus [3]): 20.25 µg/mL (≈ 28.2 µM)
- growth time curve of S. aureus (in words) (Staphylococcus aureus [5]): exhibited antimicrobial activity against both strains during the measuring time
- growth time curve of S. cerevisiae (in words) (Saccharomyces cerevisiae [6]): exhibited antimicrobial activity against both strains during the measuring time
